Data as given in ChEMBL document CHEMBL1142640, “New natural product isolation and comparison of the secondary metabolite content of three distinct samples of the sea hare Aplysia dactylomela from tenerife” (J Nat Prod, 2000).
Converted amounts (≈) assume the structure as drawn. The source made the active and inactive calls. No cut-off for these calls is given here.

Columns and labels:
Microbotryum violaceum = test: Antifungal activity against Microbotryum violaceae at 50 ug/disk; assay type: functional
[Chlorella] fusca [1] = Antialgal activity against Chlorella fusca at 50 ug/disk; assay type: functional; settings: Scenedesmus fuscus; for zone of inhibition at 50 µg/disc: read-out: IZ
Escherichia coli = test: Antibacterial activity against Escherichia coli at 50 ug/disk; assay type: functional
Priestia megaterium = test: Antibacterial activity against Bacillus megaterium at 50 ug/disk; assay type: functional
Fusarium oxysporum = test: Antifungal activity against Fusarium oxysporum at 50 ug/disk; assay type: functional
[2] = system: Aspergillus pseudoglaucus; test: Antifungal activity against Eurotium repens at 50 ug/disk; assay type: functional
Mycotypha microspora [3] = test: Antifungal activity against Mycotypha microspora at 50 ug/disk; assay type: functional
Artemia salina = test: (§1) Toxicity in Artemia salina at 0.5 mg/mL after 48 hrs; assay type: organism-based; settings: in vivo, 48 h
[4] = Cytotoxicity against human MEL28 cells; assay type: functional, cell-based; settings: SK-MEL-28
A549 = test: Cytotoxicity against human A549 cells; assay type: functional, cell-based
HT-29 = test: Cytotoxicity against human HT29 cells; assay type: functional, cell-based
P388 = test: Cytotoxicity against mouse P388 cells; assay type: functional, cell-based
MCF7 = test: Cytotoxicity against human MCF7 cells; assay type: functional, cell-based
KB = test: Cytotoxicity against human KB cells; assay type: functional, cell-based
ZR-75-1 = test: Cytotoxicity against human ZR-75-1 cells; assay type: functional, cell-based
Lu1 = test: Cytotoxicity against human Lu1 cells; assay type: functional, cell-based
HepG2 = test: Cytotoxicity against human HepG2 cells; assay type: functional, cell-based
[5] = Cytotoxicity against human HMO2 cells; assay type: functional, cell-based
[6] = Antibacterial activity against Escherichia coli assessed as few colonies of test organism growing within inhibition zone at 50 ug/disk; settings: read-out: IZ
[Chlorella] fusca [7] = Antialgal activity against Chlorella fusca assessed as no colonies of test organism growing within inhibition zone at 50 ug/disk; assay type: functional; settings: Scenedesmus fuscus; read-out: IZ
HeLa = test: Cytotoxicity against human HeLa cells; assay type: functional, cell-based
Mycotypha microspora [8] = test: Antifungal activity against Mycotypha microspora assessed as no colonies of test organism growing within inhibition zone at 50 ug/disk; assay type: functional; settings: read-out: IZ
[9] = molecular target: Tyrosine-protein kinase Lck (Homo sapiens) (UniProt P06239); test: Inhibition of p56lck
Chain of Tyrosine-protein kinase Lck (Homo sapiens) (P06239 2-509 limits assumed): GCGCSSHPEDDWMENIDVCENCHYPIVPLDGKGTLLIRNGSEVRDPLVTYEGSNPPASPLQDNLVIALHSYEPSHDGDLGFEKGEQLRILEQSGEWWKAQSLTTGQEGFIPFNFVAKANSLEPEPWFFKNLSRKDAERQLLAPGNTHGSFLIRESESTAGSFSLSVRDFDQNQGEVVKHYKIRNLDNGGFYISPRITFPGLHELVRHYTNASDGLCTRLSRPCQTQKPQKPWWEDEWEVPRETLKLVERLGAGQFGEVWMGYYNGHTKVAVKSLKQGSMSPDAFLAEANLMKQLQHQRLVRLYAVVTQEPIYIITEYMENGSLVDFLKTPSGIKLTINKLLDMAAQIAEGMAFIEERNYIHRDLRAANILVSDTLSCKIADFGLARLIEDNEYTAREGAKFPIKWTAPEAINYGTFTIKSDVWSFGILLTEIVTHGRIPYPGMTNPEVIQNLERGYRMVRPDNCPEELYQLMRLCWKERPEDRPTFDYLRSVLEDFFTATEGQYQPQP

[10] = molecular target: Human immunodeficiency virus type 1 reverse transcriptase (Human immunodeficiency virus 1) (UniProt Q72547); test: Inhibition of HIV1 reverse transcriptase
Caenorhabditis elegans = test: Nematicidal activity against Caenorhabditis elegans; assay type: functional, organism-based
[Chlorella] fusca [11] = Antialgal activity against Chlorella fusca assessed as few colonies of test organism growing within inhibition zone at 50 ug/disk; assay type: functional; settings: Scenedesmus fuscus; read-out: IZ
[12] = as §1; assay type: organism-based; settings: in vivo, read-out: Activity
[13] = system: Aspergillus pseudoglaucus; test: Antifungal activity against Eurotium repens assessed as few colonies of test organism growing within inhibition zone at 50 ug/disk; assay type: functional; settings: read-out: IZ

## C=C[C@]1(C)CC[C@@H](Br)[C@](C)(CC[C@@H]2[C@@H](C)[C@]3(C)CC[C@@]2(C)O3)O1 [DACTYLOPYRANOID]
Microbotryum violaceum
  Activity: inactive
[Chlorella] fusca [1]
  Activity: inactive
Escherichia coli
  Activity: inactive
Priestia megaterium
  Activity: inactive
Fusarium oxysporum
  Activity: inactive
[2]
  Activity: inactive
Mycotypha microspora [3]
  Activity: inactive
Artemia salina
  Activity: Not Active

## Clc1ccc(COC(Cn2ccnc2)c2ccc(Cl)cc2Cl)c(Cl)c1 (stereo not drawn) [MICONAZOLE]
Microbotryum violaceum; read-out: IZ
  zone of inhibition at 50 µg/disc: 20 mm
[Chlorella] fusca [1]
  zone of inhibition at 50 µg/disc: 4 mm
Escherichia coli; read-out: IZ
  zone of inhibition at 50 µg/disc: 1 mm
Priestia megaterium; read-out: IZ
  zone of inhibition at 50 µg/disc: 10 mm
Fusarium oxysporum; read-out: IZ
  zone of inhibition at 50 µg/disc: 32 mm
[2]; read-out: IZ
  zone of inhibition at 50 µg/disc: 3 mm
Mycotypha microspora [3]; read-out: IZ
  zone of inhibition at 50 µg/disc: 5 mm

## C=C1C[C@@H](O)[C@@H](Br)C(C)(C)[C@]12CC[C@](C)(Cl)[C@@H](Br)C2 [CARTILAGINEOL]
Microbotryum violaceum
  inhibition zone (IZ): inactive
[Chlorella] fusca [1]
  inhibition zone (IZ): inactive
[4]
  IC50: 1 µg/mL (≈ 2.41 µM)
Escherichia coli
  inhibition zone (IZ): inactive
Priestia megaterium
  inhibition zone (IZ): inactive
A549
  IC50: 1 µg/mL (≈ 2.41 µM)
Fusarium oxysporum
  inhibition zone (IZ): inactive
HT-29
  IC50: 0.25 µg/mL (≈ 0.603 µM)
[2]
  inhibition zone (IZ): inactive
P388
  IC50: 5 µg/mL (≈ 12.1 µM)
Mycotypha microspora [3]
  inhibition zone (IZ): inactive
Artemia salina
  inhibition zone (Toxicity): Not Active

## C[C@](Cl)(/C=C/Br)[C@@H](Cl)/C=C/C(=C\Cl)C(Cl)Cl
Microbotryum violaceum
  Activity: inactive
MCF7
  IC50: 1.5 µg/mL (≈ 3.87 µM)
KB
  IC50: > 25 µg/mL
ZR-75-1
  IC50: > 25 µg/mL
Lu1
  IC50: > 25 µg/mL
HepG2
  IC50: 1 µg/mL (≈ 2.58 µM)
[5]
  IC50: 1.1 µg/mL (≈ 2.84 µM)
Fusarium oxysporum
  Activity: inactive
[6]
  zone of inhibition at 50 µg/disc: 2 mm
[2]
  Activity: inactive
[Chlorella] fusca [7]
  zone of inhibition at 50 µg/disc: 1 mm
Artemia salina
  Activity: Not Active

## C=C1C[C@H](O)[C@H](Br)C(C)(C)[C@@]12CC[C@](C)(Br)[C@@H](Cl)C2
Microbotryum violaceum
  inhibition zone (IZ): inactive
[Chlorella] fusca [1]
  inhibition zone (IZ): inactive
Escherichia coli
  inhibition zone (IZ): inactive
Priestia megaterium
  Activity: inactive
Fusarium oxysporum
  inhibition zone (IZ): inactive
[2]
  inhibition zone (IZ): inactive
Mycotypha microspora [3]
  inhibition zone (IZ): inactive
HeLa
  IC50: 10 µg/mL (≈ 24.1 µM)
Artemia salina
  inhibition zone (Toxicity): Not Active

## CCOC(=O)c1ccccc1C(=O)OCC [DIETHYL PHTHALATE]
[Chlorella] fusca [1]
  zone of inhibition at 50 µg/disc: 13 mm

## C=C1C[C@@H](O)[C@@H](Br)C(C)(C)[C@]12CC[C@@](C)(Br)[C@H](Cl)C2 [OBTUSOL]
Mycotypha microspora [8]
  zone of inhibition at 50 µg/disc: 6 mm
Escherichia coli
  Activity: inactive
[9]
  Activity: inactive
[10]
  Activity: inactive
MCF7
  IC50: 1.5 µg/mL (≈ 3.62 µM)
KB
  IC50: > 25 µg/mL
ZR-75-1
  IC50: > 25 µg/mL
Priestia megaterium
  Activity: inactive
Lu1
  IC50: > 25 µg/mL
HepG2
  IC50: < 1 µg/mL
[5]
  IC50: 7 µg/mL (≈ 16.9 µM)
Caenorhabditis elegans
  Activity: Active
[Chlorella] fusca [11]
  zone of inhibition at 50 µg/disc: 3 mm
HeLa
  IC50: 50 µg/mL (≈ 121 µM)
[12]
  mortality at 48 h, 0.5 mg/mL: 80%

## C=C1C[C@H](OC(C)=O)[C@H](Br)C(C)(C)[C@@]12CC[C@](C)(Br)[C@@H](Cl)C2
[Chlorella] fusca [1]
  Activity: inactive
Escherichia coli
  Activity: inactive
KB
  IC50: > 25 µg/mL
ZR-75-1
  IC50: > 25 µg/mL
Priestia megaterium
  Activity: inactive
Lu1
  IC50: > 25 µg/mL
[13]
  zone of inhibition at 50 µg/disc: 1 mm
Artemia salina
  Activity: Not Active

## C=C[C@@](C)(O)CC[C@H]1[C@](C)(CC[C@H](Br)C(C)(C)Cl)[C@@H]2CC[C@@]1(C)O2 [DACTYLOMELOL]
Microbotryum violaceum
  Activity: inactive
[Chlorella] fusca [1]
  Activity: inactive
Escherichia coli
  Activity: inactive
Priestia megaterium
  Activity: inactive
Fusarium oxysporum
  Activity: inactive
[2]
  Activity: inactive
Mycotypha microspora [3]
  Activity: inactive
Artemia salina
  Activity: Not Active

## CC1(C)C=CC(=O)[C@@](C)([C@H]2CC[C@](C)(Cl)[C@@H](Br)C2)O1 [CAESSPITENONE]
Microbotryum violaceum
  Activity: inactive
[Chlorella] fusca [1]
  Activity: inactive
Escherichia coli
  Activity: inactive
Priestia megaterium
  Activity: inactive
Fusarium oxysporum
  Activity: inactive
[2]
  Activity: inactive
Mycotypha microspora [3]
  Activity: inactive
Artemia salina
  Activity: Not Active
